# From PubChem BioAssay AID1996
# Conditions: buffer; pH 7.4; 200.0 µM
row,SMILES,solubility kinetic [µg/mL]
1,Cn1cc(S(=O)(=O)NCC2CCCO2)c(=O)n(C)c1=O (stereo not given),> 45.5
2,CCCc1ccc(S(=O)(=O)NCC2CCCN2CC)cc1 (stereo not given),31
3,CCCCCCCCn1c(=O)c(C(=O)OC)c(N)c2ccccc21,0.9
4,CC(C)(C)OC(=O)NCCC(=O)N/N=C/c1ccc2ncccc2c1,> 51.4
5,CCCCCCC(O)(CCN1CCCCC1)c1ccccc1.Cl (stereo not given),49.3
6,COc1cccc(C(=O)NCCNC(=O)c2ccc(C)nc2)c1,45.7
7,Cc1nc2ccccc2c(=O)n1Cc1ccc([N+](=O)[O-])cc1,> 44.3
8,CC1CC(C)(C)Nc2ccc(N=O)cc21 (stereo not given),> 30.6
9,O=C(COC(=O)/C=C/c1ccc(Cl)cc1Cl)NCc1ccco1,5.9
10,COc1cc(C(=O)N2CCC(C(N)=O)CC2)ccc1OCc1c(C)noc1C,> 58.1
11,O=c1[nH]c(SCc2cccc(F)c2)nc2ccccc12,< 0.3
12,Cc1c(C)n(CCc2ccccc2)c2ncnc(NCCO)c12,> 46.6
13,CCCCNC(=O)c1cc2cc(OC)ccc2[nH]1,15.4
14,Cc1ccc(NC(=O)N2CCC(NC(=O)c3ccco3)CC2)cc1,> 49.1
15,Cc1ccc2nc(SCC(=O)Nc3cc(C)on3)c(C)cc2c1,< 0.2
16,O=C(Nc1ccc(C(=O)O)cc1)Nc1ccc([N+](=O)[O-])cc1,> 45.2
17,CCc1ccc(NC(=O)NCc2ccc3c(c2)OCO3)cc1,0.6
18,O=C1/C(=C/c2cccc([N+](=O)[O-])c2)CSc2ccc(Cl)cc21,< 0.7
19,O=C1CS/C(=N\NC(=O)c2ccccc2)N1,> 35.3
20,CC1CN(CCn2cnc3c(N)ncnc32)CC(C)O1 (stereo not given),36.9
21,CC1(C(=O)O)CCC(C(=O)Nc2cccc(F)c2)C1(C)C (stereo not given),> 44
22,C=CCn1c(O)c(/C=N/N2CCCCC2)c(=O)[nH]c1=O,> 41.7
23,Cc1ccc(CN2C(=O)c3ccccc3NC2c2ccccn2)cc1 (stereo not given),> 49.4
24,O=C(NCC(F)(F)F)c1ccc(S(=O)(=O)Nc2ccccc2N2CCCC2)cc1,15.4

row,SMILES,solubility kinetic [µg/mL]
1,Cc1ccc(CN2CCN(C(=O)CC(C)C)CC2)cc1,25.1
2,O=C(NCc1ccccc1F)c1ccc2ccccc2n1,20.9
3,O=Cc1c(NCc2ccccc2)c2ccccc2[nH]c1=O,20.7
4,COc1ccc(NC(=O)CN2CCCCC2)cc1S(=O)(=O)N1CCCCC1.O=C(O)C(=O)O,> 72.8
5,COc1ccc(Cn2c(=S)[nH]c3ccccc3c2=O)cc1,< 0.3
6,O=C(COC(=O)c1c(Cl)cccc1Cl)NC1CCCCCCC1,8.2
7,Cc1ccc(C)n1-c1ccc(C#N)cn1,26.6
8,Cc1coc(C)c1C(=O)Nc1ccc2ccccc2c1,2.5
9,Cc1ccccc1NC(=O)c1cccc(NC(=O)c2ccco2)c1,> 48.1
10,CC1(CCc2ccccc2)NC(=O)N(CC(=O)Nc2ccc(OC(F)F)cc2)C1=O (stereo not given),11.4
11,NC(=O)c1ccc(NC(=O)Cc2cccs2)cc1,32.9
12,C/C(=N\O)C(=O)Nc1ccccc1,> 26.7
13,CC(=O)Cc1nsc(Nc2ccc(F)cc2)n1,33.2
14,CC1CCc2cc(F)ccc2N1C(=O)c1cccs1 (stereo not given),30.8
15,O=S(=O)(c1ccccc1)c1ccc(N2CCCCCC2)cc1,< 0.7
16,CCOc1ccc(N2CC(C(=O)N3CC(C)OC(C)C3)CC2=O)cc1 (stereo not given),> 52
17,CN(C)c1ccc(-c2nc3ccccc3c(=O)[nH]2)cc1,1.9
18,COc1ccc(C)cc1NC(=S)N1CCOCC1,> 40
19,Oc1cccc(N2Cc3ccccc3C2)c1,13
20,CC(C)[C@H](NC(N)=O)C(=O)NCCc1ccc(Cl)cc1,> 44.7
21,Cc1ccc(NC2(C#N)C(=O)Nc3ccccc32)cc1C (stereo not given),23.3
22,COC(=O)[C@H](CC(C)C)NC(=O)N1CCC(C)CC1,> 40.6
23,O=C(Cc1ccc(F)cc1)NCC1CCCO1 (stereo not given),> 35.6
24,Cc1nc(-c2ccc3c(c2)OCCCO3)cs1,29.1

row,SMILES,solubility kinetic [µg/mL]
1,Cc1cnc(NC(=O)CC2CCCC2)s1,13.3
2,Cc1nc2ccccn2c1C(=O)NNC(=O)Nc1cccc(C(F)(F)F)c1,> 56.6
3,O=C(NCCCNC(=O)c1cnccn1)c1ccc(Br)cc1,52.2
4,Cc1ccccc1NC(=O)Nc1ccccn1,0.7
5,O=c1[nH]c(=S)[nH]c2nc(-c3cccs3)cc(C(F)(F)F)c12,4.8
6,CCOC(=O)C1=C(C)Nc2ccccc2N=C1NC(=O)C1CCN(C(=O)c2ccccc2C)CC1,35.3
7,Cc1nc2cc(NS(=O)(=O)c3ccccc3)ccc2n1C,15.6
8,CC(C(=O)Nc1ccc(C#N)cc1)N(C)Cc1cccs1 (stereo not given),> 44.9
9,Cc1cc(C)nc(Nc2nc(-c3ccccc3)cs2)n1,< 0.2
10,NC(=O)CNC(=O)c1ccc(Cl)cc1,> 31.9
11,CCCOc1ccc(C(=O)Nc2ccc(CN3CCOCC3)cc2)cc1,4.1
12,CN(C)/C=C/C(=O)c1ccccc1,> 26.3
13,O=C(NC1CC1)c1cccc(Oc2ccccc2)c1,> 38
14,CSCC(C)N1CCC(CCC(=O)NC2CC2)CC1 (stereo not given),> 42.7
15,O=C(Nc1ccc(N2CCCC2)cc1)c1ccc(Br)cc1,1.4
16,Cc1ccc(CSc2nsc(C)c2C#N)cc1,3.3
17,COc1ccc(NC(=O)c2cc(-c3ccc(C)cc3)on2)cc1,< 0.3
18,O=C(NC1CCCCC1)c1cc(-c2ccc(Cl)cc2)on1,0.5
19,Cc1ccc(O)c(NC(=O)Cc2ccc3ccccc3c2)c1,6.5
20,CCn1c(C)c(C)c2cc(C(=O)N3CCCC3)ccc21,> 40.6
21,CCCSc1sc(C(=O)OC)c(-c2cccs2)c1C#N,< 0.7
22,O=C(NCC1CCCCC1)c1cc([N+](=O)[O-])ccc1Cl,8
23,O=[N+]([O-])c1ccccc1/C=C/c1ccc2ccccc2n1,< 0.3
24,COc1cc(OC)cc(C(=O)N[C@H](C(=O)NC2=NCCS2)C(C)C)c1,> 54.8

row,SMILES,solubility kinetic [µg/mL]
1,C/C=C/C(=O)OCC(=O)Nc1cccc(Br)c1,29
2,Cc1sc2c3ccsc3ccc2[n+]1C.[I-],36.3
3,COc1ccc(CC(=O)NCCc2ccc(OC)c(OC)c2)cc1,> 49.4
4,O=[N+]([O-])c1ccc(NCc2ccc3c(c2)OCO3)cc1,< 0.3
5,Cc1cccc(C)c1NC(=S)N(Cc1cccs1)C1CCCC1,0.6
6,CC(C)c1nc(SCC(=O)Nc2nccs2)c2ccccc2n1,0.6
7,O=[N+]([O-])c1cccc2c(N3CCOCC3)ccnc12,> 38.9
8,Oc1cccc(Nc2nc(-c3ccccc3)nc3ccccc23)c1,2.2
9,CC(=O)Nc1cc[n+](CC(=O)c2cccc([N+](=O)[O-])c2)cc1.[Cl-],40.3
10,Cn1ccnc1SCC(=O)Nc1ccc(SC(F)F)cc1,> 49.4
11,N/C(Cc1ccc([N+](=O)[O-])cc1)=N\OC(=O)C1CCCCC1,41.2
12,CCOc1ccc(CC(=O)Nc2cc(=O)n(C)c(=O)n2C)cc1,4.8
13,NC(=O)c1ccccc1NS(=O)(=O)c1ccc(F)cc1,> 44.1
14,c1ccc(-c2noc(CC3CCCCC3)n2)nc1,32.2
15,COc1cccc(NC(=O)CNC(=O)c2ccc(C)o2)c1,> 43.2
16,O=C(NN=C1CCCCCC1)c1ccncc1,> 34.7
17,O=c1[nH]c(CSc2nc3ccccc3s2)nc2ccccc12,1.5
18,Cn1c(SCC(=O)NC2CC2)nnc1-c1ccccn1,> 43.4
19,NS(=O)(=O)c1cccc(NC(=O)COC(=O)c2cc([N+](=O)[O-])ccc2N2CCCC2)c1,9.7
20,CC(=O)c1c(C)[nH]c(C(=O)COC(=O)c2cc(C)oc2C)c1C,13.1
21,CN1CCN(c2ccc(C(=O)NC3CCCCC3)cc2[N+](=O)[O-])CC1,49.7
22,Cn1cnc2c(=O)sc3ccccc3c21,> 32.4
23,CN(C)C(=O)COc1ncnc2scc(-c3ccc(F)cc3)c12,45.8
24,Cc1nnc(NC(=O)CSc2nnc(C)c(=O)n2N)s1,> 47

row,SMILES,solubility kinetic [µg/mL]
1,COc1cccc(NC(=O)CN(C)CC(=O)Nc2ccc3c(c2)OCO3)c1,> 55.7
2,CC1(C)CC2(CCCN(C(=S)Nc3ccccc3)C2)CCO1 (stereo not given),46.4
3,CC(NC(=O)C(c1ccccc1)c1ccccc1)C(=O)N1CCCCC1 (stereo not given),49.3
4,COc1cccc(-n2cc(-c3ccc(F)cc3)[nH]c2=S)c1,2.4
5,O=C(Nc1c[nH]c(=O)[nH]c1=O)c1cc([N+](=O)[O-])cc([N+](=O)[O-])c1,16.7
6,COc1cc(C2NC(=S)NC(c3ccccc3)=C2C(C)=O)ccc1O (stereo not given),43.8
7,O=C(CN1C(=O)COc2ccccc21)NCCCN1CCOCC1,> 50
8,CN(c1ccccc1)S(=O)(=O)c1ccc(C(=O)NCc2ccccc2F)cc1,10.4
9,O=C(CCC1CCN(Cc2ccc(Cl)cc2)CC1)NC1CC1,41.3
10,COc1ccc(CCNC(=O)C(=O)NCC2CCNCC2)cc1OC,> 52.4
11,COc1ccc(NCCC(O)c2ccc(Cl)cc2)cc1 (stereo not given),40.5
12,CC(=O)N(OCc1ccc(OC(C)C)c(Cl)c1)C(C)=O,38.1
13,COc1ccc(OC)c(Nc2nc(NCCC(C)C)nc(N)c2[N+](=O)[O-])c1,< 0.1
14,COc1ccc(C(C)=O)cc1COc1cccnc1[N+](=O)[O-],5.1
15,O=C(COC(=O)c1cc(S(=O)(=O)N2CCOCC2)c(Cl)cc1Cl)NCc1ccco1,> 71.6
16,COc1ccc2c(C)cc(SCC(=O)NC3CCCC3)nc2c1,6.6
17,COc1cc(S(=O)(=O)NCc2ccccn2)ccc1Cl,> 46.9
18,Br.Clc1ccccc1CNCC1CCCO1 (stereo not given),41
19,S=C([S-])N1CCCC1.[NH4+],16.6
20,O=C(NNC(=O)c1ccccc1-n1cccc1)c1cncc(Br)c1,> 57.8
21,CCC1C(=O)Nc2ccccc2N1C(=O)COc1ccccc1 (stereo not given),> 46.6
22,CC(NC(=O)c1ccc(F)cc1Cl)C1CC2CCC1C2 (stereo not given),16.6
23,CCCN1C(=O)C(O)(C2COC(C)(C)CC2=O)c2ccccc21 (stereo not given),33.7
24,Cc1c(Cl)cccc1NC(=O)CNC(=O)C1CC(=O)N(C2CCCC2)C1 (stereo not given),> 56.7
